Test system: diet induced obese (DIO) C57BL/6J mice
Experiment: Oral glucose tolerance test (OGTT) in diet induced obese mice
Assay type: in vivo
Details: monotherapy; by 60 minutes
Description: After 4 weeks of dosing mice with test article, an OGTT was performed. Here, mice were fasted for 6 hours after which fasting blood glucose levels were measured via tail vein blood using a glucometer (One-Touch Ultra II). Mice were then dosed with an oral glucose bolus (2 g/kg) via oral gavage, and blood glucose was measured at 20, 40, 60, and 120 minutes post gavage.

CN(C)C(=N)N=C(N)N [metformin]
blood glucose after glucose challenge: remained elevated

From patent US11793841B2, “Microbial compositions and methods for treating type 2 diabetes, obesity, and metabolic syndrome” (Solarea Bio, Inc., priority 2017, dated 2023)
